“Also recorded” adds a separate entry of the source. Where only a bound is given, the exact number is not on record here.

Data set [1] concerns splenocytes of tumor-bearing mice. To be noted: dietary; cited from earlier work.
Data set [2] in a line: Plasma astaxanthin by reverse phase HPLC in supplemented human subjects. The format is in vivo. Also on record: Astaxanthin Levels (plasma): unit not given here. To be noted: for Astaxanthin Levels (plasma): oral. As to the method: (§1) Free-living healthy female Korean subjects (average age 21.5 years) were recruited at Inha University, Korea. A three-day dietary record was obtained prior to the study to provide background dietary information. Subjects had no history of diabetes, cancer or alcohol abuse, and were non-smokers. They were allowed to consume their normal diets but advised to restrain from eating astaxanthin-rich foods. Subjects were assigned to receive 0 (control), 2, or 8 mg astaxanthin (109 g astaxanthin/kg oleoresin concentrate from Haematococcus pluvialis, astaZanthin™, La Haye Laboratories Inc., Redmond, Wash.) (n=14 subjects/diet) for eight weeks in a double-blind placebo control study. The astaxanthin was administered in the form of one soft gel capsule taken every morning. Blood was again drawn on week 0, 4 and 8 to assess immune function and oxidative status.
HPLC. Astaxanthin content in plasma was analyzed by reverse phase HPLC (Alliance 2690 Waters HPLC system fitted with a photodiode array detector, Waters, Milford, Mass.) as previously described (Park et al., J Nutr. 128(10):1650-1656, 1998). Trans-β-apo-8′carotenal (Sigma Chem. Co., St. Louis, Mo.) was used as the internal standard.

Data set [3] deals with human subjects. Nature of the data set: Delayed-type hypersensitivity (DTH) response to intracutaneous tuberculin. The format is in vivo. As to the method:
as §1
Delayed-type hypersensitivity. Delayed-type hypersensitivity (DTH) response to an intracutaneous injection of tuberculin (Mono-Vacc Test (O.T.), Pasteur Merieux Connaught, France) was assessed on week 8. The injection was administered by a physician and skin thickness and induration were measured at 0, 24, 48 and 72 hours after challenge. In general, DTH response was maximal at 48 to 72 h post-injection (FIG. 9). Subjects fed 2 mg astaxanthin had higher (P<0.08) DTH response than unsupplemented controls.

Data set [4] relates to peripheral blood mononuclear cell (PBMC). In words: Mitogen-induced lymphoproliferation, whole blood cultures. The format is in vivo, human. To be noted: especially 8 mg; significant (P<0.05) on wk 8. As to the method:
as §1
Lymphoproliferation. The proliferation response of peripheral blood mononuclear cell (PBMC) to PHA (2 and 10 mg/L final concentration), concanavalin A (Con A; 2 and 10 mg/L), and pokeweed mitogen (PWM; 1 and 5 mg/L) was assessed using whole blood cultures as described (Chew et al., J Nutr. 130(8):1910-1913, 2000). Whole blood was cultured in order to mimic in vivo conditions. Results were calculated as stimulation index (cpm of mitogen-stimulated culture/cpm of unstimulated cultures). Astaxanthin supplementation, especially those given 8 mg astaxanthin, increased lymphocyte proliferation when stimulated by the T cell-dependent mitogens PHA (FIG. 2) and Con A (FIG. 3), and also B cell mitogen (PWM, FIG. 4). The increases were significant (P<0.05) on wk 8 for all mitogens.

The test system of data set [5] is CD3 (total T), CD4 (Th), CD8 (Tc), NK, CD21 (B cells). In words: Leukocyte subsets by flow cytometry. The format is in vivo, human. As to the method:
as §1
(§2) Leukocyte subset. Subpopulations of CD3 (total T), CD4 (Th), CD8 (Tc), NK (natural killer), and CD21 (B cells) were quantitated by flow cytometry as previously described (Chew et al. 2000). In addition, the distribution of the cell surface adhesion molecules ICAM-1 (CD54), LFA-1 (CD11a) and LFA-3 (CD58), also was measured by flow cytometry. The population of total T cells was higher (P<0.05) in astaxanthin-fed (both levels) subjects than unsupplemented controls on wk 4 and 8 (FIG. 6). The population of B cells also was higher (P<0.05) in subjects given 2 mg astaxanthin after 8 weeks (FIG. 7).

The test system of data set [6] is ICAM-1 (CD54), LFA-1 (CD11a) and LFA-3 (CD58). Nature of the data set: Cell surface adhesion molecules by flow cytometry. The format is in vivo, human. To be noted: for frequency of cells expressing LFA-1 marker: week 8 (control 31.8%). As to the method:
as §1, §2

Data set [7] relates to K562 target cells. In words: Natural killer cell cytotoxic activity (PBMC effector, MTT). The format is in vivo, human. The settings on record: 8 mg daily, wk 8, effector:target ratio 10:1, P<0.05. As to the method: as §1
Natural killer cell cytotoxic activity. Effector (PBMC) and target (K562) cells were cultured at effector:target ratios of 5:1 and 10:1 in Dulbecco's Modified Eagles Medium (Sigma, St. Louis, Mo.) containing 100 mL/L fetal bovine serum, 100 U/mL penicillin, and […] streptomycin sulfate. Killing was assessed using MTT. Percent of specific cytotoxicity calculated as follows: % Specific cytotoxicity=1−(ODeffector+target−ODeffector)/ODtarget×100. […]

Data set [8] deals with 8-Hydroxy-2′-deoxyguanosine (8-OHdG). In words: Oxidative damage to DNA: plasma 8-OHdG by ELISA. The format is in vivo, human. Set-up: Average Levels of 8-OHdG (plasma): unit not given here. The settings on record: for Average Levels of 8-OHdG (plasma): oral. The procedure: as §1
Oxidative damage to DNA. 8-Hydroxy-2′-deoxyguanosine (8-OHdG) was measured in plasma by ELISA (BIOXYTECH™ 8-OHhdG-EIA Kit, OxisResearch, Portland, Oreg.; sensitivity=0.5 μg/L).

Data set [9] relates to 8-epi-prostaglandin F2α (8-isoprostane). Nature of the data set: Lipid peroxidation: plasma 8-isoprostane by ELISA. The format is in vivo, human. To be noted: 2 or 8 mg daily, 8 weeks. As to the method: as §1
Lipid-peroxidation. Plasma concentrations of 8-epi-prostaglandin F2α (8-isoprostane) was measured by ELISA.

Data set [10] relates to rats. To be noted: rats fed 400 ppm for 41 days; cited from earlier work.
Data set [11] relates to UVA-induced oxidative stress. To be noted: in vitro; cited from earlier work.
The conditions of data set [12]: cited from earlier work.
The conditions of data set [13]: mice fed the same amount of these carotenoids; cited from earlier work.
The test system of data set [14] is lipid peroxidation. To be noted: cited from earlier work.
Data set [15] concerns cytotoxic T lymphocyte activity and IFN-γ production. The settings on record: astaxanthin-fed mice; cited from earlier work.
For data set [16], the system named is splenocytes. To be noted: mice; cited from earlier work.

As to `CC1=C[C@H](O)CC(C)(C)[C@H]1/C=C/C(C)=C/C=C/C(C)=C/C=C/C=C(C)/C=C/C=C(C)/C=C/C1=C(C)C[C@@H](O)CC1(C)C` [lutein], in [1], the “IFN-γ mRNA expression” value was “increased” and the “expression of IL-10” value is reported as “decreased”.
Take `CC1=C(/C=C/C(C)=C/C=C/C(C)=C/C=C/C=C(C)/C=C/C=C(C)/C=C/C2=C(C)C(=O)C(O)CC2(C)C)C(C)(C)CC(O)C1=O` (stereo not drawn) [astaxanthin, 3,3′-dihydroxy-beta,beta-carotene-4,4′-dione]: the “Astaxanthin Levels (plasma)” value was determined as 0.0960 in data set [2] (2 mg astaxanthin daily, 4 week); 0.0921 in [2] (2 mg astaxanthin daily, 8 week); 0.1309 in data set [2] (8 mg astaxanthin daily, 4 week); 0.1162 in data set [2] (8 mg astaxanthin daily, 8 week). The “plasma astaxanthin prior to feeding” value in [2] (week 0) was “undetectable”. Also, the “plasma astaxanthin, change on feeding” value in data set [2] (weeks 4 and 8, dose-dependently, P<0.01) is listed as “increased”. For the same compound, the “DTH response vs unsupplemented controls” value in [3] (2 mg daily, week 8, P<0.08) is “higher”; in [3] (8 mg daily, week 8) it was “did not show a similar heightened DTH response”. Also, the “Con A-induced lymphocyte proliferation (stimulation index)” value in data set [4] was “increased; also recorded: stimulated”. In data set [4], the “PHA-induced lymphocyte proliferation (stimulation index)” value is recorded as “increased; also recorded: stimulated”. Besides, the “PWM-induced lymphocyte proliferation (stimulation index)” value in [4] is on record as “increased; also recorded: stimulated”. In addition, the “population of B cells” value in [5] (2 mg daily, after 8 weeks, P<0.05) is “higher”; in data set [5] (8 mg daily) it was “did not elevate”. Moreover, in [5] (2 or 8 mg daily), the “population of Th, Tc or NK cells or ratio of Th:Tc cells” value is given as “did not significantly influence”. Further, the “population of total T cells vs unsupplemented controls” value in data set [5] (both levels (2 and 8 mg), wk 4 and 8, P<0.05) was “higher; also recorded: increased”. Moreover, the “expression of LFA-1 adhesion molecules” value in data set [6] (2 mg daily, P<0.05) is “increased”. In addition, the “frequency of cells expressing LFA-1 marker” value was 42.1% in data set [6] (2 mg daily) and 30.6% in [6] (8 mg daily). Further, the “ICAM-1 or LFA-3 expression” value in [6] (2 or 8 mg daily) is “No similar dietary effect”. The “NK cell cytotoxic activity” value in data set [7] is on record as “higher; also recorded: increased”. In addition, the “Average Levels of 8-OHdG (plasma)” value is 23.4 in data set [8] (2 mg astaxanthin daily, 0 week (baseline)); 13.8 in [8] (2 mg astaxanthin daily, 4 week); 14.4 in data set [8] (2 mg astaxanthin daily, 8 week); 23.5 in data set [8] (8 mg astaxanthin daily, 0 week (baseline)); 15.3 in data set [8] (8 mg astaxanthin daily, 4 week); 13.2 in data set [8] (8 mg astaxanthin daily, 8 week). Also, the “further decrease of DNA damage with higher dose” value in [8] (8 mg vs 2 mg daily) is listed as “did not decrease further”. Also, the “plasma 8-oxodG concentration vs unsupplemented subjects” value in data set [8] (2 or 8 mg daily, as early as wk 4, P<0.01) was “dramatically lower”. For the same compound, the “reduction in 8-OHdG (blood DNA damage)” value in [8] (after 4 weeks of feeding) is given as > 35%. In addition, the “lipid peroxidation measured in the plasma (8-isoprostane)” value in [9] is “did not significantly influence”. Moreover, in [10], the “effects on body/organ weight, enzyme activities, pregnancy, or litter size” value was “no harmful effects”. Also, the “protection against UVA-induced oxidative stress relative to lutein and β-carotene” value in data set [11] is reported as “approximately 100 fold”. Moreover, in [12] (oil), the solubility in oil entry is “extremely low”. In data set [12] (water), the solubility in water entry is listed as “substantially insoluble”. For the same compound, the “concentration in plasma vs β-carotene, lutein” value in [13] is “much higher”. The “inhibiting lipid peroxidation vs β-carotene and vitamin E” value in data set [14] was “more effective”. Further, in [15], the “cytotoxic T lymphocyte activity and IFN-γ production” value is given as “increased”. The “ex vivo antibody response of splenocytes to T-cell antigens” value in data set [16] was “increased”.

Values taken from patent US20060217445A1, “Natural astaxanthin extract reduces dna oxidation” (priority 2003, published 2006).
